Laboratory results reported in the NIST ThermoML archive (doi:10.1021/je400423u).
Numbers after ± are expanded uncertainties.

Legend:
[1] = 101 kPa, Liquid; for viscosity: Falling or rolling sphere viscometry; for mass density: Vibrating tube method
[2] = xn = mol fraction of the nth substance listed; conditions: 101 kPa, Liquid, x1 = 1; for viscosity: Falling or rolling sphere viscometry; for mass density: Vibrating tube method

Structure (SMILES)	viscosity ([1]; 308.15 K) [mPa·s]	mass density ([1]; 308.15 K) [kg/m3]	viscosity ([1]; 313.15 K) [mPa·s]	mass density ([1]; 313.15 K) [kg/m3]	viscosity ([1]; 318.15 K) [mPa·s]	mass density ([1]; 318.15 K) [kg/m3]	viscosity ([1]; 323.15 K) [mPa·s]	mass density ([1]; 323.15 K) [kg/m3]	mass density ([1]; 328.15 K) [kg/m3]	mass density ([1]; 333.15 K) [kg/m3]	mass density ([1]; 338.15 K) [kg/m3]	mass density ([1]; 343.15 K) [kg/m3]	further results
CC(C)CO [2-methyl-1-propanol]	2.382 ± 0.019	790.12 ± 0.12	2.116 ± 0.017	786.12 ± 0.12	1.861 ± 0.015	782.06 ± 0.12	1.602 ± 0.013	777.93 ± 0.12	773.73 ± 0.12	769.44 ± 0.13	765.07 ± 0.13	760.61 ± 0.13	–
CC(C)(C)O [2-methylpropan-2-ol]	2.589 ± 0.02	770.36 ± 0.13	2.089 ± 0.016	765.07 ± 0.13	1.69 ± 0.013	759.67 ± 0.13	1.409 ± 0.011	754.19 ± 0.13	748.62 ± 0.13	742.95 ± 0.14	737.19 ± 0.14	731.31 ± 0.14	–
CCC(C)O (stereo not given) [butan-2-ol]	2.128 ± 0.017	794.05 ± 0.14	1.822 ± 0.015	789.65 ± 0.14	1.533 ± 0.013	785.15 ± 0.14	1.315 ± 0.011	780.55 ± 0.15	775.83 ± 0.15	770.99 ± 0.15	766.03 ± 0.15	760.96 ± 0.15	viscosity ([1]; 333.15 K): 1.025 ± 0.0087 mPa·s
CCC(C)O (stereo not given) [butan-2-ol] + CC(C)CO	–	–	–	–	–	–	–	–	–	–	–	–	viscosity ([2]; 308.15 K): 2.128 ± 0.017 mPa·s; mass density ([2]; 308.15 K): 794.05 ± 0.14 kg/m3; viscosity ([2]; 313.15 K): 1.822 ± 0.015 mPa·s; mass density ([2]; 313.15 K): 789.65 ± 0.14 kg/m3; viscosity ([2]; 318.15 K): 1.533 ± 0.013 mPa·s; mass density ([2]; 318.15 K): 785.15 ± 0.14 kg/m3; viscosity ([2]; 323.15 K): 1.315 ± 0.011 mPa·s; mass density ([2]; 323.15 K): 780.55 ± 0.15 kg/m3; mass density ([2]; 328.15 K): 775.83 ± 0.15 kg/m3; viscosity ([2]; 333.15 K): 1.025 ± 0.0087 mPa·s; mass density ([2]; 333.15 K): 770.99 ± 0.15 kg/m3; mass density ([2]; 338.15 K): 766.03 ± 0.15 kg/m3; mass density ([2]; 343.15 K): 760.96 ± 0.15 kg/m3
